Literature values, collected in PMC10323144, “Garbage in, garbage out: how reliable training data improved a virtual screening approach against SARS-CoV-2 MPro” (Frontiers in Pharmacology, 2023).

System: MPro
Settings: compiled from peer-reviewed sources (287 compounds) ref the 18 original articles; cited from earlier work

| SMILES | Class (MPro activity class) |
| --- | --- |
| COc1ccc(CN=c2[nH]c(N3CCC[C@H]3CO)ncc2C(=O)NCc2ncccn2)cc1Cl | 0 (compounds with IC50 > 20 μM, percentage inhibition <80% at 20 µM or 50 μM, or percentage enzyme inhibition <50% at 10 µM were labelled as INACTIVE) |
| COc1cc(OC)nc(O[C@H](C(=O)O)C(OC)(c2ccccc2)c2ccccc2)n1 | 0 (compounds with IC50 > 20 μM, percentage inhibition <80% at 20 µM or 50 μM, or percentage enzyme inhibition <50% at 10 µM were labelled as INACTIVE) |
| O=C(O)CNC(=O)c1ncc(-c2cccc(Cl)c2)cc1O | 0 (compounds with IC50 > 20 μM, percentage inhibition <80% at 20 µM or 50 μM, or percentage enzyme inhibition <50% at 10 µM were labelled as INACTIVE) |
| COc1cc(C2OCC3C(c4ccc(OC5OC(CO)C(O)C(O)C5O)c(OC)c4)OCC23)ccc1O (single isomer, unassigned; (+)) [(+)-Pinoresinol-4-O-β-D-glucopyraside] | 0 (compounds with IC50 > 20 μM, percentage inhibition <80% at 20 µM or 50 μM, or percentage enzyme inhibition <50% at 10 µM were labelled as INACTIVE) |
| N#Cc1ccccc1-c1cc(-c2ccccn2)cn(-c2ccccc2)c1=O [1 (perampanel), perampanel] | 0 (compounds with IC50 > 20 μM, percentage inhibition <80% at 20 µM or 50 μM, or percentage enzyme inhibition <50% at 10 µM were labelled as INACTIVE) |
| O=C(C=Cc1ccc(O)c(O)c1)OC1CC(OC(=O)C=Cc2ccc(O)c(O)c2)(C(=O)O)CC(O)C1O (centres unmarked) [1,3-Dicaffeoylquinic acid] | 0 (compounds with IC50 > 20 μM, percentage inhibition <80% at 20 µM or 50 μM, or percentage enzyme inhibition <50% at 10 µM were labelled as INACTIVE) |
| O=c1cc(-c2ccccc2)oc2ccc(O)c(O)c12 [5,6-Dihydroxyflavone] | 0 (compounds with IC50 > 20 μM, percentage inhibition <80% at 20 µM or 50 μM, or percentage enzyme inhibition <50% at 10 µM were labelled as INACTIVE) |
| COc1cccc2[nH]c(C(=O)NC(CC(C)C)C(=O)NC(CC3CCNC3=O)C(=O)c3nc4ccccc4s3)cc12 (centres unmarked) [5h] | 1 (Compounds with IC50 < 10 µM or with a percentage of enzyme inhibition >50% at 10 µM were labelled as ACTIVE) |
| O=c1cc(-c2ccccc2)oc2cc(O)c(O)cc12 [6,7-Dihydroxyflavone] | 0 (compounds with IC50 > 20 μM, percentage inhibition <80% at 20 µM or 50 μM, or percentage enzyme inhibition <50% at 10 µM were labelled as INACTIVE) |
| O=C(Oc1cncc(Cl)c1)c1cccc2[nH]ccc12 [10_GRL0496] | 1 (Compounds with IC50 < 10 µM or with a percentage of enzyme inhibition >50% at 10 µM were labelled as ACTIVE) |
| O=CC(CC1CCNC1=O)NC(=O)C(Cc1cccc(F)c1)NC(=O)c1cc2ccccc2[nH]1 (centres unmarked) [11b] | 1 (Compounds with IC50 < 10 µM or with a percentage of enzyme inhibition >50% at 10 µM were labelled as ACTIVE) |
| O=C(Nc1ccc(N(Cc2ccsc2)C(=O)Cn2nnc3ccccc32)cc1)C1CC1 [16e (ML300)] | 1 (Compounds with IC50 < 10 µM or with a percentage of enzyme inhibition >50% at 10 µM were labelled as ACTIVE) |
| CNc1ccc(N(Cc2ccsc2)C(=O)Cn2nnc3ccccc32)cc1 [16j] | 1 (Compounds with IC50 < 10 µM or with a percentage of enzyme inhibition >50% at 10 µM were labelled as ACTIVE) |
| O=C(Cn1nnc2ccccc21)N(Cc1ccsc1)c1ccc(-c2ccccc2)cc1 [17a] | 1 (Compounds with IC50 < 10 µM or with a percentage of enzyme inhibition >50% at 10 µM were labelled as ACTIVE) |
| COc1cc(Cl)cc(OC(=O)Nc2cccnc2)c1 [AGN-NEW-891393a6-1] | 1 (Compounds with IC50 < 10 µM or with a percentage of enzyme inhibition >50% at 10 µM were labelled as ACTIVE) |
| O=C1N(Cc2cccc(Cl)c2)CCN1c1nccc2[nH]ncc12 [ALP-POS-91609ae9-3] | 1 (Compounds with IC50 < 10 µM or with a percentage of enzyme inhibition >50% at 10 µM were labelled as ACTIVE) |
| CCC(=O)Nc1ccc(N(Cc2ccsc2)C(=O)Cn2nnc3ccccc32)cc1 [ALP-POS-c59291d4-2] | 1 (Compounds with IC50 < 10 µM or with a percentage of enzyme inhibition >50% at 10 µM were labelled as ACTIVE) |
| CC(C)(C)NC(=O)C(c1cccnc1)N(C(=O)c1ccco1)c1ccc(C(C)(C)C)cc1 (centres unmarked) [ALP-POS-c59291d4-6] | 1 (Compounds with IC50 < 10 µM or with a percentage of enzyme inhibition >50% at 10 µM were labelled as ACTIVE) |
| CN(C)c1ccc(N(Cc2ccsc2)C(=O)Cn2nnc3ccccc32)cc1 [ALP-POS-d2866bdf-1] | 1 (Compounds with IC50 < 10 µM or with a percentage of enzyme inhibition >50% at 10 µM were labelled as ACTIVE) |

| SMILES | Class (MPro activity class) |
| --- | --- |
| Nc1nc(NC2CC2)c2ncn([C@H]3C=C[C@@H](CO)C3)c2n1 [Abacavir] | 0 (compounds with IC50 > 20 μM, percentage inhibition <80% at 20 µM or 50 μM, or percentage enzyme inhibition <50% at 10 µM were labelled as INACTIVE) |
| C[C@@H]1O[C@@H](O[C@@H]2[C@@H](O)[C@H](OCCc3ccc(O)c(O)c3)O[C@H](CO)[C@H]2OC(=O)/C=C/c2ccc(O)c(O)c2)[C@H](O)[C@H](O)[C@H]1O [Acteoside] | 0 (compounds with IC50 > 20 μM, percentage inhibition <80% at 20 µM or 50 μM, or percentage enzyme inhibition <50% at 10 µM were labelled as INACTIVE) |
| Cn1c(=O)cc(N2CCC[C@@H](N)C2)n(Cc2ccccc2C#N)c1=O [Alogliptin] | 0 (compounds with IC50 > 20 μM, percentage inhibition <80% at 20 µM or 50 μM, or percentage enzyme inhibition <50% at 10 µM were labelled as INACTIVE) |
| CCOC(=O)[C@H]1O[C@@H]1C(=O)N[C@@H](CC(C)C)C(=O)NCCC(C)C [Aloxistatin] | 0 (compounds with IC50 > 20 μM, percentage inhibition <80% at 20 µM or 50 μM, or percentage enzyme inhibition <50% at 10 µM were labelled as INACTIVE) |
| Cc1c(-c2ccnn2C)cc(C(=O)NCc2ccc(S(C)(=O)=O)cn2)c(=O)n1-c1cccc(C(F)(F)F)c1 [Alvestat] | 0 (compounds with IC50 > 20 μM, percentage inhibition <80% at 20 µM or 50 μM, or percentage enzyme inhibition <50% at 10 µM were labelled as INACTIVE) |
| CC(C)CN(C[C@@H](O)[C@H](Cc1ccccc1)NC(=O)O[C@H]1CCOC1)S(=O)(=O)c1ccc(N)cc1 [Amprenavir] | 0 (compounds with IC50 > 20 μM, percentage inhibition <80% at 20 µM or 50 μM, or percentage enzyme inhibition <50% at 10 µM were labelled as INACTIVE) |
| CC(C)(C#N)c1cc(Cn2cncn2)cc(C(C)(C)C#N)c1 [Anastrozole] | 0 (compounds with IC50 > 20 μM, percentage inhibition <80% at 20 µM or 50 μM, or percentage enzyme inhibition <50% at 10 µM were labelled as INACTIVE) |
| C=C[C@@H]1C[C@]1(NC(=O)[C@@H]1C[C@@H](Oc2ncc(OC)c3ccc(Cl)cc23)CN1C(=O)[C@@H](NC(=O)OC(C)(C)C)C(C)(C)C)C(=O)NS(=O)(=O)C1CC1 [Asunaprevir] | 0 (compounds with IC50 > 20 μM, percentage inhibition <80% at 20 µM or 50 μM, or percentage enzyme inhibition <50% at 10 µM were labelled as INACTIVE) |
| COC(=O)NC(C(=O)NC(Cc1ccccc1)C(O)CN(Cc1ccc(-c2ccccn2)cc1)NC(=O)C(NC(=O)OC)C(C)(C)C)C(C)(C)C (centres unmarked) [Atanazavir] | 0 (compounds with IC50 > 20 μM, percentage inhibition <80% at 20 µM or 50 μM, or percentage enzyme inhibition <50% at 10 µM were labelled as INACTIVE) |
| CC(C)c1c(C(=O)Nc2ccccc2)c(-c2ccccc2)c(-c2ccc(F)cc2)n1CC[C@@H](O)C[C@@H](O)CC(=O)O [Atorvastatin] | 0 (compounds with IC50 > 20 μM, percentage inhibition <80% at 20 µM or 50 μM, or percentage enzyme inhibition <50% at 10 µM were labelled as INACTIVE) |
| NC(=O)[C@@H](CCC(F)(F)F)N(Cc1ccc(-c2ncon2)cc1F)S(=O)(=O)c1ccc(Cl)cc1 [Avagacestat] | 0 (compounds with IC50 > 20 μM, percentage inhibition <80% at 20 µM or 50 μM, or percentage enzyme inhibition <50% at 10 µM were labelled as INACTIVE) |
| O=C(c1cc(=O)[nH]c2ccccc12)N1CCN(Cc2ccccc2)CC1 [BEN-DND-7e92b6ca-10] | 1 (Compounds with IC50 < 10 µM or with a percentage of enzyme inhibition >50% at 10 µM were labelled as ACTIVE) |
| COc1cccc(N2CCN(C(=O)c3cc(=O)[nH]c4ccccc34)CC2)c1 [BEN-DND-7e92b6ca-12] | 1 (Compounds with IC50 < 10 µM or with a percentage of enzyme inhibition >50% at 10 µM were labelled as ACTIVE) |
| O=C(Cn1ccnc1[N+](=O)[O-])NCc1ccccc1 [BENZNIDAZOLE] | 0 (compounds with IC50 > 20 μM, percentage inhibition <80% at 20 µM or 50 μM, or percentage enzyme inhibition <50% at 10 µM were labelled as INACTIVE) |
| COc1ccc(NC(=O)c2ccc(C(=N)N(C)C)cc2)c(C(=O)Nc2ccc(Cl)cn2)c1 [BETRIXABAN] | 0 (compounds with IC50 > 20 μM, percentage inhibition <80% at 20 µM or 50 μM, or percentage enzyme inhibition <50% at 10 µM were labelled as INACTIVE) |
| Nc1cc(C(F)(F)F)c(-c2nc(N3CCOCC3)nc(N3CCOCC3)n2)cn1 [BIMIRALISIB] | 0 (compounds with IC50 > 20 μM, percentage inhibition <80% at 20 µM or 50 μM, or percentage enzyme inhibition <50% at 10 µM were labelled as INACTIVE) |
| O=c1cc(-c2ccccc2)oc2cc(O)c(O)c(O)c12 [Baicalein] | 1 (Compounds with IC50 < 10 µM or with a percentage of enzyme inhibition >50% at 10 µM were labelled as ACTIVE) |
| O=C(O)[C@H]1O[C@@H](Oc2cc3oc(-c4ccccc4)cc(=O)c3c(O)c2O)[C@H](O)[C@@H](O)[C@@H]1O [Baicalin] | 0 (compounds with IC50 > 20 μM, percentage inhibition <80% at 20 µM or 50 μM, or percentage enzyme inhibition <50% at 10 µM were labelled as INACTIVE) |
| CNC(=O)[C@H](Cc1ccccc1)NC(=O)[C@H](CC(C)C)[C@H](CSc1cccs1)C(=O)NO [Batimastat] | 0 (compounds with IC50 > 20 μM, percentage inhibition <80% at 20 µM or 50 μM, or percentage enzyme inhibition <50% at 10 µM were labelled as INACTIVE) |
